Reference: a melting point compilation (Tetko et al.)

SMILES | melting point
CC(=O)C1(O)CCC2(C)C(CC(=O)C3C4CCC(=O)C4(C)CCC32)C1 (stereo not given) | 185 to 191 °C
Cc1ccc(-c2ccc(/C=C/C(=O)c3ccc(C)o3)o2)cc1 | 143 °C
Cc1cccc(C)c1C(N)=O | 136 to 138 °C
CSCc1ccccc1 | -28 °C
CC(=O)Nc1ccc(Br)cc1C(=O)O | 223 °C
CCOc1cc2c(cc1OCC)C(=S)NCC2 | 150 to 152 °C
NS(=O)(=O)c1ccc(Sc2ccc(Cl)cc2)s1 | 133 to 136 °C
CCOC(=O)C=Cc1cccc(C=CC(=O)OCC)c1 | 53.5 °C
CCCc1c(O)ccc2c(=O)cc(C(=O)O)oc12 | 264 to 267 °C
CC=CC(=O)OC1CC2OC3C=C(C)C(=O)CC3(C)C1(C)C21CO1 (stereo not given) | 118 °C
CN(C)c1ccc(N=c2cc(-c3ccccc3)sc(-c3ccccc3)c2)cc1 | 165 °C
c1ccc(-c2nc3ccccc3[nH]2)nc1 | 223 °C
CCOc1ccc2[nH]c(=S)sc2c1 | 199 °C
C#CCCCCCCCCCCCCCC | 15 °C
Nc1cc(Cl)cnc1Cl | 124 to 125 °C
CC(C)CC(C)Br (stereo not given) | -94 °C
C/C(=N\CCc1ccccn1)c1c(O)c2ccccc2n(-c2ccccc2)c1=O | 219 to 220 °C
Oc1ncnc2[nH]cnc12 | 250 °C
OCc1cccc(C(F)(F)F)c1Cl | 76 °C
Brc1ccc(Oc2ccc(Br)c(Br)c2)c(Br)c1 | < 20 °C
CC1=CC=CC2(C)Cc3ccccc3C(=O)N12 (stereo not given) | 177 °C
Oc1cc(Cl)cc(Cl)c1Cl | 62 °C
O=C(Oc1ccc(O)cc1)c1ccccc1 | 166 °C
CCC1(c2ccc(N)cc2)CCC(=O)NC1=O (stereo not given) | 150 °C
CCC1CC(=O)CC(C)(C)N1O (stereo not given) | 33 to 38 °C
CC(O)C1CC1 (stereo not given) | -32.1 °C

SMILES | melting point
O=C(CCCN1CC=C(n2c(=O)[nH]c3ccccc32)CC1)c1ccc(F)cc1 | 146 °C
CC1(c2ccccc2)CC(C(=NOCC(=O)c2ccccc2)c2cc3ccccc3o2)C1 (stereo not given) | 154 to 155 °C
CN(C)C(=S)Sc1ccc([N+](=O)[O-])cc1[N+](=O)[O-] | 152 °C
N#Cc1cc(O)cc(O)c1 | 188 °C
S=c1[nH]c2ncccc2o1 | 243 to 246 °C
CCN(CC)c1ccc(C(=O)O)cc1 | 194 °C
N#Cc1c(F)cccc1OCc1ccc(Cl)cc1 | 146 to 148 °C
Nc1ccc(SSc2ccc(N)cc2)cc1 | 77 °C
CC(C)(C)OC(=O)N[C@@H](CSCc1ccccc1)C(=O)O | 85 to 88 °C
O=C(c1ccccc1)C(c1ccccc1)c1cc(Cl)c([N+](=O)[O-])cc1[N+](=O)[O-] (stereo not given) | 131 °C
CC1=C(O)C(=O)C2OC2C1=O (stereo not given) | 127 °C
Cc1[nH]c2ccccc2c1C=O | 204 to 205 °C
O=C(O)CCn1c(=O)oc2ccccc21 | 126 to 128 °C
CC(NC(=O)OC(C)(C)C)C(=O)N1CCCC1C(=O)OCc1ccccc1 (stereo not given) | 68 to 70 °C
CC(=O)c1ccc(OC2OC(CO)C(O)C(O)C2O)cc1 (stereo not given) | 196 °C
Cc1ccncc1[N+](=O)[O-] | 20 °C
OCc1ccc2sccc2c1 | 91 to 92 °C
CSCC[C@H](NC(=O)OCC1c2ccccc2-c2ccccc21)C(=O)O | 132 to 136 °C
COc1ccc(C(O)(c2cc(OC)c(OC)c(OC)c2)c2ccc(OC)cc2OC)c(OC)c1 | 109 °C
CCCCCCOC(=O)CCCC | -63.1 °C
Cc1cc(O)c(C(C)C)cc1SC#N | 103 to 105 °C
Cc1ccc2ocnc2c1 | 43 °C
O=C(O)c1ccc(Oc2ccccc2)o1 | 126 to 127 °C
CC(=NO)c1ccn(S(=O)(=O)c2ccccc2)c1 | 162 to 165 °C
CC(C)NCC(O)COc1ccc(COCCOC(C)C)cc1 (stereo not given) | 100 °C
CC(C)(C)C(=O)CS(=O)(=O)c1ccc(Cl)cc1 | 97 °C

SMILES | melting point
N=c1sc(C(=O)c2cccs2)nn1-c1ccncc1 | 131 °C
O=C(OCC1CCC2OC2C1)C1CCC2OC2C1 (stereo not given) | -37 °C
CC1(C)OC(=O)C(=C2CCCCCN2)C(=O)O1 | 147 to 149 °C
CCC(=O)c1ccc[nH]1 | 50 °C
CS(=O)(=O)c1ccc2nc(N)sc2c1 | 222 to 223 °C
O=C(O)c1ccc(Cn2cncn2)cc1 | 227 to 229 °C
Cn1cc(Br)c(C=O)n1 | 71 to 72 °C
Cc1cc(C)c(C(N)=O)c(N)n1 | 172 to 174 °C
CCCCN1CCOCC1 | -57.1 °C
O=C(Cl)c1csc(Cc2c(Cl)cccc2Cl)n1 | 104 °C
Cc1cc(C(C)(C)C)c(O)c(C)c1CC1=NCCN1 | 182 °C
CCCCCCCCCCCCCCCCC=O | 36 °C
CCCCCCCCCCCCC(C)C | -8 °C
O=C(O)c1cc2cc(Br)ccc2s1 | 233 to 234 °C
N[C@H]1CC[C@@H](C(=O)O)CC1 | 300 °C
O=C(C=Cc1ccc([N+](=O)[O-])cc1)c1ccccc1 | 164 °C
CCOC(=O)c1sc(-c2ccc(C(F)(F)F)cc2)nc1C | 87 to 89 °C
O=C(Nc1cccc(Br)c1)c1cncc(Cl)n1 | 100 °C
O=C(CF)c1ccccc1 | 29 °C
Cc1nn(-c2cc(NS(C)(=O)=O)c(Cl)cc2Cl)c(=O)n1C(F)F | 122 °C
Oc1cccc(S)c1 | 16.5 °C
CSC(=NC#N)SC | 54 °C
Cc1nn2c(-c3ccccc3)nnc2s1 | 192 to 194 °C
COc1ccnc(-c2cc(OC)ccn2)c1 | 169 to 174 °C
NC(=O)c1cc(Cl)ccc1Cl | 160 °C
NC(=O)NC1NC(=O)NC1=O (stereo not given) | 238 °C

SMILES | melting point
COc1cccc2sc(N)nc12 | 156 °C
O=C(O)CNC(=O)OCC1c2ccccc2-c2ccccc21 | 174 to 178 °C
O=[N+]([O-])c1cccc([N+](=O)[O-])c1CO | 85 to 95 °C
NC(=S)NN=Cc1ccccc1 | 154 to 156 °C
C#CC1(O)CCC2C3CCc4cc(O)ccc4C3C(OC)CC21C (stereo not given) | 280 °C
COc1ccc(N(CCCC(=O)O)C(=O)c2ccc(Cl)cc2)cc1 | 116 °C
Cc1nn(C)c(NC(=O)CCl)c1Br | 151 to 153 °C
c1ccc(-c2ccc(-c3nnc(-c4ccc(-c5ccccc5)cc4)o3)cc2)cc1 | 237 °C
COC(=O)CS | -3 °C
O=C(NC1CCN(CCc2c[nH]c3ccccc23)CC1)c1ccccc1 | 208 °C
Cc1csc2c(Cl)ncnc12 | 124 to 125 °C
CC(=O)c1ccc(O)cc1C | 128 °C
O=C(O)c1csc2ccc(Br)cc12 | 284 to 287 °C
Cc1ccn2c(=O)c3ccccc3cc2c1 | 124 °C
Cc1ccc(-c2cc(C(=O)O)c(C)o2)cc1 | 230 to 232 °C
CN(C)C=C(C=O)c1ccccc1[N+](=O)[O-] | 119 to 120 °C
Brc1cccc(Oc2ccc(Br)cc2Br)c1 | < 20 °C
CN(C)C(=O)Nc1cc(C(C)(C)C)on1 | 120 °C
CC(C)N1C(=O)c2ccccc2NS1(=O)=O | 140 °C
O=C(COc1ccc2ccccc2c1)ON1C(=O)CCC1=O | 150 to 152 °C
COC(=O)[C@H](CCC(=O)O)NC(=O)OCc1ccccc1 | 68 to 70 °C
Cc1c(N=C=O)cccc1N=C=O | 18.3 °C
Cc1cc(=O)oc(C)c1C(=O)O | 154 to 156 °C
O=C1Cc2cc([N+](=O)[O-])ccc21 | 76 °C
BrCCCCCBr | -34 °C
O=C(O)CN(CC(=O)O)Cc1cc2c(cc1O)Oc1cc(O)c(CN(CC(=O)O)CC(=O)O)cc1C21OC(=O)c2ccccc21 | 200 °C

SMILES | melting point
CN(C)c1ccc(N=c2cc(-c3ccccc3)oc(-c3ccccc3)c2)cc1 | 148 °C
CSC(SC)=C(C(C)=O)C(C)=O | 61 °C
N#CCc1csc2ccccc12 | 64 °C
FC(F)(F)C1(F)C(F)(F)C(F)(F)C(F)(F)C(F)(C(F)(F)F)C1(F)F (stereo not given) | -55 °C
O=[N+]([O-])c1ccccc1OC1OC(CO)C(O)C(O)C1O (stereo not given) | 195 °C
Nc1nn2c(C(F)(F)F)cc(-c3cccs3)nc2c1/N=N/c1ccc(F)cc1 | 220 °C
CC1(C)C2CCC1(C)C(/N=C\c1ccc([N+](=O)[O-])cc1)C2/N=C/c1ccc([N+](=O)[O-])cc1 (stereo not given) | 170 °C
CC(C)C1CCC(Cc2ccc(Cl)cc2)C1(O)Cn1cncn1 (stereo not given) | 89 °C
CCC(C(=O)O)c1ccc(CC(C)C)cc1 (stereo not given) | 52 °C
COC(=O)c1ccc(C(=O)O)cc1[N+](=O)[O-] | 175 °C
C=C1C(=O)C23C(OC(C)=O)CC4C5(C)CCCC4(C(OC)OC5)C2C(OC(C)=O)CC1C3OC(C)=O (stereo not given) | 71 °C
O=C(Oc1ccccc1)c1ccc(O)cc1 | 176 to 178 °C
CCC(=O)Oc1cccc2ccccc12 | 34 to 35 °C
O=C1C=C(O)c2cccc3cccc1c23 | 261 to 264 °C
CCOC(=O)N(c1ccccc1)c1ccccc1 | 72 °C
CCP(=O)(c1ccccc1)c1ccccc1 | 122 °C
COc1c(OC)c(OC(C)=O)c2cc(C#N)ccc2c1OC(C)=O | 124 °C
Clc1ncnc2sc(-c3ccccc3)cc12 | 139 to 140 °C
O=C1/C(=C/c2ccc([N+](=O)[O-])cc2)SC(=S)N1CN1CCOCC1 | 169 °C
O=C(NCCCCCCCCNC(=O)C(Cl)Cl)C(Cl)Cl | 118 to 120 °C
CCC(CO)(CO)[N+](=O)[O-] | 57.5 °C
COc1ccc(-n2nc(C(=O)c3cccc4ccccc34)sc2=N)cc1 | 75 °C
S=C(NCCc1ccccc1)Nc1ccccc1 | 135 °C
CC1CN(c2ccccc2)NC1=O (stereo not given) | 133 to 136 °C
Cc1ccc2cc(C)ccc2c1 | 112 °C
CC(=O)Nc1ccc([N+](=O)[O-])c(F)c1 | 176 °C
